Values of other authors as cited in patent US10500227B2, “Bioactive gas-encapsulated echogenic liposomes and methods for treating cardiovascular disease” (University of Cincinnati, priority 2014, dated 2019).

[N]=O [NO, nitric oxide]
diffusivity (in muscular tissue): roughly 3,300 μm^2 per second
half-life (in the presence of hemoglobin and oxygen in vivo): < 1 s
